± gives the expanded uncertainty stated by the source.
Assay: molar heat capacity at constant pressure
Details: 101.33 kPa, Crystal, Small sample (50 mg) DSC

[F-].[Na+] [sodium fluoride]
Details	molar heat capacity at constant pressure [J/K/mol]
630.6 K	58.08 ± 1.4
645.6 K	58.11 ± 1.4
675.7 K	59.55 ± 1.5
690.6 K	59.36 ± 1.4
720.6 K	58.15 ± 1.4
735.5 K	59.11 ± 1.4
750.6 K	58.85 ± 1.4
765.6 K	59.28 ± 1.4
795.6 K	58.36 ± 1.4
825.5 K	58.26 ± 1.4
840.4 K	58.49 ± 1.4
855.6 K	59.14 ± 1.4
870.6 K	58.37 ± 1.4
885.5 K	59.37 ± 1.4
900.5 K	59.7 ± 1.5
907.5 K	59.76 ± 1.5
915.5 K	60.11 ± 1.5
922.3 K	60.21 ± 1.5
937.4 K	60.58 ± 1.5
945.5 K	59.64 ± 1.5
952.5 K	59.98 ± 1.5
960.6 K	60.43 ± 1.5
967.5 K	60.92 ± 1.5
975.4 K	59.89 ± 1.5
982.6 K	60.11 ± 1.5
990.5 K	61.01 ± 1.5
997.5 K	60.91 ± 1.5
1012.6 K	61.02 ± 1.5
1027.6 K	60.56 ± 1.5
1042.6 K	61.86 ± 1.5
1057.7 K	61.63 ± 1.5
1072.7 K	62.08 ± 1.5
1087.8 K	62.41 ± 1.5
1102.9 K	62.25 ± 1.5

Reference: the NIST ThermoML archive (doi:10.1016/j.jct.2006.03.002)
